Measured values from patent US20240239801A1, “PYRIMIDO[5,4,D]PYRIMIDINE COMPOUNDS, COMPOSITIONS COMPRISING THEM AND USES THEREOF” (Université de Montréal, priority 2021, published 2024).
Where two headings read alike, the source gives them in different places.

Assays:
HCT116 pERK = assay: Phospho-ERK inhibition, AlphaLISA SureFire Ultra p-ERK 1/2; assay type: cell-based, human; details: for IC50: 1 h treatment; for HCT116 (Ymin %): lowest value of the pERK IC50 curve
Procedure: (§1) All cancer cell lines (A375, A101D, A2058, RKO, HT29 SK-MEL 30, IPC298, HepG2, HCT-116, Lovo, SW620, SW480, NCI-H358, NCI-H2122, Calu-6, NCIH2087, NCIH1755, NCIH1666 and Mewo) were obtained from ATCC and cultured in RPMI-1640 medium (Gibco) supplemented with 5% heat inactivated fetal bovine serum (FBS, Wisent) at 37° C. under 5% CO2. Cells were maintained in T175 flasks (Greiner). They were passaged by removing the culture medium, washing once in 10 mL of room temperature Phosphate Buffered Saline (PBS; Wisent) and incubating at 37° C. with 2 mL of 0.05% Trypsin (Thermo-Fisher). Trypsin was then inactivated by adding complete growth medium and the cells were then replated in a T175 culture dish at the appropriate dilution. All cell lines were routinely tested for mycoplasma contamination. Tissue type and mutational status of each cell line can be found in Table B.
(§2) AlphaLISA® SureFire® Ultra™ p-ERK ½ (Thr202/Tyr204) analysis was conducted on cells plated in 100 μL of complete RPMI-1640 growth medium in 96-well flat-bottomed transparent dishes (Costar) at a density indicated in Table C. Cells were maintained overnight at 37° C. under 5% CO2 before treatment with compounds' dilution series for one hour. The cell density in cells/cm^2 corresponds to cell number divided by the area of one well of a 96-well plate ([…]).
(§3) In a dilution series 100 μL/well of test substance dilution prepared in complete RPMI-1640 growth media was added to the cells. The dilution series is selected so that ten concentrations cover a range from 30 μM or 10 μM to 0.33 nM. If necessary, the initial concentration of 10 μM is increased to 100 μM or lowered to 1 μM (as in the case of A375 and NCIH1666 cells, which are generally more sensitive to the compounds) and further dilution is carried out accordingly. The final concentration of DMSO in the assay is set at 0.5%.
(§4) After treatment, media was removed, and cells were lysed in 50 μL of 1× AlphaScreen Ultra Lysis Buffer (Perkin Elmer). The AlphaLISA® SureFire® Ultra™ p-ERK ½ (Thr202/Tyr2O4) (PerkinElmer) reactions were performed with 5 μL of cell lysate according to the manufacturer's specifications in 384-well proxyplates (Perkin Elmer) followed by overnight incubation of the reactions at room temperature in a humidified chamber. After completion of the reactions, the signals were recorded on an EnVision plate reader (Perkin Elmer) using built in AlphaLISA® settings.
(§5) The effect of each compound dilution on the pERK signal was expressed in % inhibition and calculated as follows. An internal 100% inhibition control (1 μM trametinib, cat. No. HY-10999; MedChem Express; CAS No. 871700-17-3) was included in each plate and used as a measure of pERK background. First, the value obtained for trametinib was subtracted from each data point. The average of DMSO (vehicle) controls (set as 0% inhibition) was established and used to calculate % inhibition:
(§6) The ability of each compound to inhibit pERK signal was expressed as an IC50 value obtained by plotting the inhibition values for each data point of a dilution series and fitting the obtained curves using a log(agonist) versus response−variable slope (four parameters) function using GraphPadPrism (V7.0).
(§7) When present, paradoxical pERK induction is inferred from the negative % inhibition values observed in the pERK IC50 curves of a compound.

SW480 pERK = assay: as above; assay type: cell-based, human; details: for IC50: 1 h treatment; for SW480 (Ymin %): lowest value of the pERK IC50 curve
Procedure: as §1, §2, §3, §4, §5, §6, §7

[1] = Table 2, read-out: SW480 PERK IC50 (UM)
[2] = Table 3, read-out: SW480 PERK IC50

| SMILES | IC50 (HCT116 pERK; Table 2) | IC50 (SW480 pERK; [1]) | IC50 (HCT116 pERK; Table 3) | IC50 (SW480 pERK; [2]) | HCT116 (Ymin %) (HCT116 pERK; Table 2) | SW480 (Ymin %) (SW480 pERK; Table 2) | HCT116 (Ymin %) (HCT116 pERK; Table 3) | SW480 (Ymin %) (SW480 pERK; Table 3) |
| --- | --- | --- | --- | --- | --- | --- | --- | --- |
| COc1ccc(S(=O)(=O)Nc2ccc(F)c(Nc3ncnc4cnc(SC)nc34)c2F)cc1OC [Example 2] | 1 to 10 µM | 1 to 10 µM | – | – | −14% | 5% | – | – |
| COC(=O)c1sccc1S(=O)(=O)Nc1ccc(F)c(Nc2ncnc3cnc(SC)nc23)c1F [Example 3] | 1 to 10 µM | 1 to 10 µM | – | – | −7% | 9% | – | – |
| CSc1ncc2ncnc(Nc3c(F)ccc(NS(=O)(=O)c4ccc5c(c4)CCO5)c3F)c2n1 [Example 4] | 1 to 10 µM | 1 to 10 µM | – | – | −5% | −2% | – | – |
| CSc1ncc2ncnc(Nc3c(F)ccc(NS(=O)(=O)c4ccccc4C#N)c3F)c2n1 [Example 5] | 10 to 30 µM | 1 to 10 µM | – | – | 8% | 8% | – | – |
| CSc1ncc2ncnc(Nc3c(F)ccc(NS(=O)(=O)c4ccc5c(c4)OCO5)c3F)c2n1 [Example 6] | 10 to 30 µM | 1 to 10 µM | – | – | −10% | 1% | – | – |
| COc1ccc(S(=O)(=O)Nc2ccc(F)c(Nc3ncnc4cnc(SC)nc34)c2F)c(C#N)c1 [Example 7] | 10 to 30 µM | 1 to 10 µM | – | – | 7% | 17% | – | – |
| COc1ccc(S(=O)(=O)Nc2ccc(F)c(Nc3ncnc4cnc(SC)nc34)c2F)c(F)c1 [Example 8] | 1 to 10 µM | 1 to 10 µM | – | – | −3% | 15% | – | – |
| CSc1ncc2ncnc(Nc3c(F)ccc(NS(=O)(=O)c4ccc(F)cc4C#N)c3F)c2n1 [Example 10] | 10 to 30 µM | 1 to 10 µM | – | – | 9% | −9% | – | – |
| COc1ccc(S(=O)(=O)Nc2ccc(F)c(Nc3ncnc4cnc(SC)nc34)c2F)c(C)c1 [Example 12] | 1 to 10 µM | 1 to 10 µM | – | – | −7% | −10% | – | – |
| COc1ccc(S(=O)(=O)Nc2ccc(F)c(Nc3ncnc4cnc(SC)nc34)c2F)c(C(F)(F)F)c1 [Example 14] | 1 to 10 µM | 1 to 10 µM | – | – | −5% | −6% | – | – |
| CSc1ncc2ncnc(Nc3c(F)ccc(NS(=O)(=O)c4ccc(Cl)cc4Cl)c3F)c2n1 [Example 15] | 10 to 30 µM | 10 to 30 µM | – | – | −3% | 0% | – | – |
| CSc1ncc2ncnc(Nc3c(F)ccc(NS(=O)(=O)c4ccc(Br)cc4F)c3F)c2n1 [Example 16] | 10 to 30 µM | 1 to 10 µM | – | – | 1% | 3% | – | – |
| CSc1ncc2ncnc(Nc3c(F)ccc(NS(=O)(=O)c4ccc(Br)cc4C)c3F)c2n1 [Example 17] | 10 to 30 µM | 1 to 10 µM | – | – | 5% | 3% | – | – |
| CSc1ncc2ncnc(Nc3c(F)ccc(NS(=O)(=O)c4ccc(C)cc4)c3F)c2n1 [Example 18] | 10 to 30 µM | 1 to 10 µM | – | – | 4% | 11% | – | – |
| COc1ccc(S(=O)(=O)Nc2ccc(F)c(Nc3ncnc4cnc(SC)nc34)c2F)c(OC)c1 [Example 19] | 10 to 30 µM | 1 to 10 µM | – | – | −4% | 4% | – | – |
| CSc1ncc2ncnc(Nc3c(F)ccc(NS(=O)(=O)c4ccccc4C)c3F)c2n1 [Example 20] | 1 to 10 µM | 1 to 10 µM | – | – | 7% | 12% | – | – |

Further lines, with some results ahead:

| IC50 (HCT116 pERK; Table 2) | IC50 (SW480 pERK; [1]) | IC50 (HCT116 pERK; Table 3) | IC50 (SW480 pERK; [2]) | SMILES | HCT116 (Ymin %) (HCT116 pERK; Table 2) | SW480 (Ymin %) (SW480 pERK; Table 2) | HCT116 (Ymin %) (HCT116 pERK; Table 3) | SW480 (Ymin %) (SW480 pERK; Table 3) |
| --- | --- | --- | --- | --- | --- | --- | --- | --- |
| 1 to 10 µM | 1 to 10 µM | – | – | CSc1ncc2ncnc(Nc3c(F)ccc(NS(=O)(=O)c4ccccc4Cl)c3F)c2n1 [Example 21] | 2% | 9% | – | – |
| 1 to 10 µM | 1 to 10 µM | – | – | CSc1ncc2ncnc(Nc3c(F)ccc(NS(=O)(=O)c4ccc(Cl)cc4C)c3F)c2n1 [Example 22] | −1% | −5% | – | – |
| 1 to 10 µM | 1 to 10 µM | – | – | CSc1ncc2ncnc(Nc3c(F)ccc(NS(=O)(=O)c4ccc(C)cc4C)c3F)c2n1 [Example 23] | 0% | −7% | – | – |
| 10 to 30 µM | 1 to 10 µM | – | – | CSc1ncc2ncnc(Nc3c(F)ccc(NS(=O)(=O)N4CCCC4)c3F)c2n1 [Example 24] | 10% | 13% | – | – |
| 10 to 30 µM | 10 to 30 µM | – | – | COC1CN(S(=O)(=O)Nc2ccc(F)c(Nc3ncnc4cnc(SC)nc34)c2F)C1 [Example 25] | 7% | −6% | – | – |
| 10 to 30 µM | – | – | – | CSc1ncc2ncnc(Nc3c(F)ccc(NS(=O)(=O)N4CCC(F)(F)C4)c3F)c2n1 [Example 27] | −6% | – | – | – |
| – | – | 1 to 10 µM | 10 to 30 µM | COc1ccc(S(=O)(=O)Nc2ccc(F)c(Nc3ncnc4cnc(-n5cnc(C)c5)nc34)c2F)cc1OC [Example 30] | – | – | −6% | −5% |
| – | – | 1 to 10 µM | 1 to 10 µM | COc1ccc(S(=O)(=O)Nc2ccc(F)c(Nc3ncnc4cnc(N5CC[C@H](F)C5)nc34)c2F)cc1 [Example 31] | – | – | 13% | 11% |
| – | – | 10 to 30 µM | 1 to 10 µM | COc1ccc(S(=O)(=O)Nc2ccc(F)c(Nc3ncnc4cnc(-n5ccnc5C)nc34)c2F)cc1 [Example 32] | – | – | 1% | 8% |
| – | – | 10 to 30 µM | 1 to 10 µM | N#Cc1ccccc1S(=O)(=O)Nc1ccc(F)c(Nc2ncnc3cnc(N4CC[C@H](F)C4)nc23)c1F [Example 33] | – | – | −4% | 13% |
| – | – | 10 to 30 µM | 1 to 10 µM | Cc1ncn(-c2ncc3ncnc(Nc4c(F)ccc(NS(=O)(=O)c5ccccc5C#N)c4F)c3n2)c1C [Example 34] | – | – | −3% | −2.0% |
| – | – | 10 to 30 µM | 1 to 10 µM | COc1ccc(S(=O)(=O)Nc2ccc(F)c(Nc3ncnc4cnc(-n5ccnc5)nc34)c2F)cc1 [Example 35] | – | – | −4% | 14% |
